Measured values: PubChem BioAssay (NCI)
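Interpolation was linear, between the two tested concentrations surrounding the appropriate level; five concentrations were tested over 48 hours in 96-well plates. GI50: concentration for 50% inhibition of growth. Definition used: TGI = concentration required for complete inhibition of growth.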 Where a SMILES comes first, the peptide text is derived from it. [ ]: non-standard residue; d: D form. The star is where a group is joined. ξ: configuration not given here. NMeF = CN[CH](Cc1ccccc1)C(=O)O; ξNMe2Val = CC(C)C(C(=O)*)N(C)C; NMeV = CN[CH](C(=O)O)C(C)C; ξNMeV = CNC(C(=O)O)C(C)C; Boc = CC(C)(C)OC(=O)*; OBn = c1ccc(CO*)cc1; OtBu = CC(C)(C)O*

What was measured:
Assay in all cases: NCI-60 cell line screen, 48 h
EKVX NSCLC = tested on: EKVX NSCLC
HOP-62 NSCLC = tested on: HOP-62 NSCLC
HOP-92 NSCLC = tested on: HOP-92 NSCLC
MOLT-4 leukemia = tested on: MOLT-4 leukemia
OVCAR-3 ovarian = tested on: OVCAR-3 ovarian
SK-MEL-2 melanoma = tested on: SK-MEL-2 melanoma
SR leukemia = tested on: SR leukemia
KM12 colon = tested on: KM12 colon
MCF7 breast = tested on: MCF7 breast
MDA-N = tested on: MDA-N

SMILES	TGI (EKVX NSCLC) [µM]	TGI (HOP-62 NSCLC) [µM]	TGI (HOP-92 NSCLC) [µM]	TGI (MOLT-4 leukemia) [µM]	TGI (OVCAR-3 ovarian) [µM]	TGI (SK-MEL-2 melanoma) [µM]	TGI (SR leukemia) [µM]	TGI (KM12 colon) [µM]	TGI (MCF7 breast) [µM]	TGI (MDA-N) [µM]	GI50 (EKVX NSCLC) [µM]	GI50 (HOP-92 NSCLC) [µM]	GI50 (KM12 colon) [µM]	GI50 (MOLT-4 leukemia) [µM]	GI50 (OVCAR-3 ovarian) [µM]
CC(C)C(C(=O)N(C)[C@H](C(=O)N1CCC[C@H]1C(=O)N(C)[C@@H](Cc1ccccc1)C(=O)OCc1ccccc1)C(C)C)N(C)C(=O)[C@@H](NC(=O)OC(C)(C)C)C(C)C (stereo not given in full) (Boc-V[ξNMeV][NMeV]P[NMeF]-OBn)	> 31.6	> 31.6	30.4	21.3	> 100	> 31.6	> 31.6								
O=c1[nH]c(=O)n(C2CC(O)C(CO)O2)cc1Br (stereo not given)	> 100	> 100	> 100	> 100	> 100	> 100		> 100	> 100	> 100					
CCSc1nc(N/N=C/c2cccs2)c2cnn(CO)c2n1	25.6	14.9	> 100		19	24.4	26.7	12.4	14.4						
O=C(NC1C/C(=N/O)c2c(Br)sc(Br)c21)C(F)(F)F (stereo not given)	> 100		32.9	> 100	> 100	90.1		> 100	> 100	> 100					
O=C1Nc2ccc(Cl)c(I)c2C1=O	20.8	34.8		54.6	52.3	34.2	50.7	76.3							
CC(=O)OCC1OC(N=[N+]=[N-])C(OC(C)=O)C(OC(C)=O)C1OC1OC(COC(C)=O)C(OC(C)=O)C(OC(C)=O)C1OC(C)=O (stereo not given)	> 100			> 100	> 100	> 100		> 100							
O=C1c2cccnc2-c2nccc3c2c1nc1ccccc13	3.21	0.514	2.54	3.2	0.0987	0.525		1.03	0.0858	0.359					
COc1ccc(Nc2nc(N)c(C(=O)c3ccc(Cl)cc3)s2)cc1	> 100	17	> 93.3		0.421	38.6		0.536	> 32.9						
CSC(C1c2ccccc2N(C)c2[nH]c(=O)n(C)c(=O)c21)S(=O)(=O)c1ccc(C)cc1 (stereo not given)	> 100	> 100	> 100	> 100	> 100	> 100									
Fc1ccc(C(OCCN2CCC3CCC(C2)N3C/C=C/c2cccs2)c2ccc(F)cc2)cc1 (stereo not given)	16.5	30.2	20.3	3.14	25.3	24.1		19.7	21.5	22					
Brc1ccc(-c2cc3c(cc2C2SCCS2)OCO3)cc1	75.1	> 100		> 100	75.9	> 100	86.9	> 100							
COc1cccc(OC)c1NC(=O)C(=O)Nn1c(NNC(=O)c2ccncc2)nc2ccccc2c1=O	> 100	> 100	> 100	> 100	> 100	> 100		> 100	> 100	> 100					
COc1ccc(NC(=O)C(=O)Cc2ccc([N+](=O)[O-])c([N+](=O)[O-])c2CC(=O)C(=O)Nc2ccc(OC)cc2OC)c(OC)c1	> 100	> 100	> 100	> 100	> 100		> 100	> 100							
N#COc1ccc(Oc2ccc(OC#N)cc2)cc1	> 100	> 100	> 100	> 100	> 100	> 100	50.1	> 100							
CC(C)C(C(=O)N(C)C(Cc1ccccc1)C(=O)N(C)C(C(=O)N(C)C(C(=O)N1CCCC1C(=O)OC(C)(C)C)C(C)C)C(C)C)N(C)C (stereo not given) (ξNMe2Val-[NMeF][NMeV][NMeV]P-OtBu; configuration not given here)	> 100	> 100		33.7	> 100		> 100	> 100							
CCCCCCCCCCCCOC1C(COCCN2CCCCC2)OC2OC(C)(C)OC21 (stereo not given)		3.25		3.74	7.25	3.14		3.06	3.23	2.9					
O=c1[nH]cnc2c1cnn2Cc1cnnn1COCCO	> 100	> 100	> 100	> 100	> 100	> 100		> 100	> 100						
CN(C)CCCn1c(Cn2nc3ccccc3n2)nc2cc(C(F)(F)F)ccc21	> 100	> 100	89.9	45.6	> 100	43.5		54.1	64.7	35.6					

SMILES	TGI (EKVX NSCLC) [µM]	TGI (HOP-62 NSCLC) [µM]	TGI (HOP-92 NSCLC) [µM]	TGI (MOLT-4 leukemia) [µM]	TGI (OVCAR-3 ovarian) [µM]	TGI (SK-MEL-2 melanoma) [µM]	TGI (SR leukemia) [µM]	TGI (KM12 colon) [µM]	TGI (MCF7 breast) [µM]	TGI (MDA-N) [µM]	GI50 (EKVX NSCLC) [µM]	GI50 (HOP-92 NSCLC) [µM]	GI50 (KM12 colon) [µM]	GI50 (MOLT-4 leukemia) [µM]	GI50 (OVCAR-3 ovarian) [µM]
CC12CCc3ccccc3C1=NNC(=O)C2 (stereo not given)	> 100	> 100	> 100	> 100	> 100	> 100		> 100							
CCCCCCCCCCCC[N+]12CC[N+](C)(CC1)CC2	> 100	> 100	47.7	> 100	> 100	> 100	26.7	20.7							
COc1ccc([C@H]2CC3C(=O)N(c4ccc(OC)cc4)C(=O)C3c3[nH]c4ccccc4c32)cc1 (stereo not given in full)	> 100	> 100	78.4	> 100	> 100	> 100		> 100							
COC(=O)C(CCC1(C)OCCO1)=[N+]=[N-]	> 100	> 100		> 100	> 100	> 100	> 100	> 100							
O=S(=O)(c1ccccc1)c1ccc(-c2nc(-c3ccc4c(c3)Sc3ccccc3S4)cs2)cc1	> 100	45.5	62.9	> 100	> 100		> 100	> 100	> 100						
CN(C)CCC[N+]1=Nc2cccc3cccc(c23)N1	> 100	> 100	> 100	62.4	> 100	> 100	35.5	> 100							
O=c1/c(=C/c2ccccn2)sc2nc3cc4c(cc3n12)OCCO4		> 100	> 100	> 100	> 100	> 100		> 100		> 100					
COc1ccc2c3/c(=C\c4ccc(N(C)C)cc4)c4ccccc4n3[n+](C)c2c1	4.16		1.78	27.9	0.369			1.24			0.11	0.236	0.255	0.0944	0.0358
Cc1cc(C)c2c(n1)S(=O)(=O)N(CCCN1CCN(c3cccc(Cl)c3)CC1)/C(=C(\O)c1ccc(Br)cc1)C2=O	57	> 100	59.6	60.2	94.7	69.4	> 100	> 100	> 100						
O=c1c2c3c(sc2nc2n1NC=NN2)CCCC3	35.9		38.5	31.7	30.5	> 66.6		34.1	> 54.2	30.9					
CC(C)(C)OC(=O)N1N=CCC1c1ccccc1 (stereo not given)	> 100	> 100	> 100		> 100		> 100	> 100	> 100						
COc1ccccc1C(=O)OCC1CCCN2CCCCC12 (stereo not given)	> 100		> 100	> 100		> 100		36.6	> 100						
O=C(NC1=C(Cl)C(=O)c2ccccc2C1=O)C(=O)C(C(=O)c1ccc2ccccc2c1)C1OC(=O)c2ccccc21 (stereo not given)	24.7	20.2	10.3	14.1	9.77	19.1	29.4	13.7	16.8						
O=c1[nH]c2ccc(CC(=S)N3CCOCC3)cc2o1	> 100	> 100		> 100	> 100	> 100	> 100	> 100	> 100						
Cc1ccc(NC(=O)C2C3CCC(O3)C2C(=O)O)cc1 (stereo not given)	> 100	> 100	> 92.9	> 100	> 89.7	> 100	43.6	> 100							
O=C(CC(C(=O)c1cccs1)c1ccsc1)c1ccc(Cl)s1 (stereo not given)	> 100	> 100		> 100		> 100	> 100	> 100	> 100						
Cc1nn2c(c1C#N)NNc1c-2sc(=N)nnc1=O	> 100	> 100	> 100	> 100	> 100		> 100	> 100							
COC(=O)C(=O)C(C(=O)OC)C(=O)C(=O)Nc1c(Cl)cc([N+](=O)[O-])cc1Cl (stereo not given)	> 100	> 100	> 100		> 100	> 100		> 100	> 100	> 100					
